How the values were obtained:
MKNK1 [1] = biological target: T1, MKNK1 (Homo sapiens, UniProt Q9BUB5, T385D); assay: MKNK1 kinase assay (MKNK1 TR-FRET assay); format: biochemical; conditions: 10 μM ATP, 15 min preincubation
T1 construct: GST (N); purchased Carna Biosciences 02-145; host or cells: insect cells (baculovirus expression system)

MKNK1 [2] = biological target: T1, MKNK1; assay: MKNK1 kinase high ATP assay (TR-FRET-based); format: biochemical; conditions: 2 mM ATP, 15 min preincubation
Procedure, shortened: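 TR-FRET read-out (anti-phospho-S6 Ser236 antibody, Eu/XL665) of biotin-peptide phosphorylation (0.06 μM) at high ATP (2 mM final). Enzyme was GST-MKNK1 full length, T344D, pre-bound to compound for 15 min before a 30 min reaction at 22 °C, pH 7.5. Inhibition scaled between no-inhibitor (0%) and no-enzyme (100%) wells.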

T1 sequence (Q9BUB5 1-424 isoform Q9BUB5-2 T344D): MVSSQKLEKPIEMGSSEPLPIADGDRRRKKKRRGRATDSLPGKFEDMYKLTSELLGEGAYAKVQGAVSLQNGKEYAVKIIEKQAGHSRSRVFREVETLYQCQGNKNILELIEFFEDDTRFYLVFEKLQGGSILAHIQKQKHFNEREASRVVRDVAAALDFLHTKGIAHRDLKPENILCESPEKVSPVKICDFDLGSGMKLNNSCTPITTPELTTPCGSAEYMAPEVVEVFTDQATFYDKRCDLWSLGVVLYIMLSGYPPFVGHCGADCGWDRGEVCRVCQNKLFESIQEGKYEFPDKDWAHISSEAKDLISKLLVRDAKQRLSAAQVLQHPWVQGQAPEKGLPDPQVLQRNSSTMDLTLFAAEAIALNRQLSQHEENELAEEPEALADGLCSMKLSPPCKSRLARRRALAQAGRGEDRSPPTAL

Row | Structure (SMILES) | IC50 (MKNK1 [1]; Table 1a) [nM] | IC50 (MKNK1 [2]; Table 2a) [nM] | IC50 (MKNK1 [1]; Table 1b) [nM] | IC50 (MKNK1 [2]; Table 2b) [nM] | IC50 (MKNK1 [1]; Table 1c) [nM] | IC50 (MKNK1 [2]; Table 2c) [nM]
1 | Cn1ccc(C(=O)N2CCC[C@H]2CCOc2ccc3ncc(-c4cc5ccccc5o4)n3n2)n1 [Example I-50, [(2S)-2-(2-{[3-(1-Benzofuran-2-yl)imidazo[1,2-b]-pyridazin-6-yl]oxy}ethyl)pyrrolidin-1-yl](1-methyl-1H-pyrazol-3-yl)methanone] | 2.4 | 3.2 |  |  |  | 
2 | CC(C)(C)NC(=O)COc1ccc2ncc(-c3cc4ccccc4o3)n2n1 [Example I-37, 2-{[3-(1-Benzofuran-2-yl)imidazo[1,2-b]pyridazin-6-yl]oxy}-N-tert-butyl-acetamide] | 17 | 70 |  |  |  | 
3 | CC(=O)N1CCC[C@H]1CCOc1ccc2ncc(-c3cc4cc(Cl)ccc4o3)n2n1 [Example I-31, 1-[(2S)-2-(2-{[3-(5-Chloro-1-benzofuran-2-yl)imidazo[1,2-b]pyridazin-6-yl]oxy}ethyl)pyrrolidin-1-yl]ethanone] | 16.7 | 35.2 |  |  |  | 
4 | CC1(C)CN(c2cccc3oc(-c4cnc5ccc(OCCCS(C)(=O)=O)nn45)cc23)CCN1 [II-55, 3-[4-(3,3-dimethylpiperazin-1-yl)-1-benzofuran-2-yl]-6-[3-(methylsulfonyl)propoxy]im-idazo[l,2-b]pyridazine] |  |  | 3.5 | 1.4 |  | 
5 | C[C@@H]1COCCN1c1nccc2oc(-c3cnc4ccc(O[C@H]5C[C@H](N)C5)nn34)cc12 [III-107, trans-3-[(3-{4-[(3R)-3-Methylmorpholin-4-yl]furo[3,2-c]pyridin-2-yl}imidazo[1,2-b]pyridazin-6-yl)oxy]cyclobutanamine] |  |  |  |  | 4.8 | 11.8
6 | CCC(=O)N1CCC[C@H]1CCOc1ccc2ncc(-c3cc4ccccc4o3)n2n1 [Example I-44, 1-[(2S)-2-(2-{[3-(1-Benzofuran-2-yl)imidazo[1,2-b]-pyridazin-6-yl]oxy}ethyl)pyrrolidin-1-yl]propan-1-one] | 1.1 | 1.7 |  |  |  | 
7 | CCC(C)C(=O)NCCOc1ccc2ncc(-c3cc4ccccc4o3)n2n1 (stereo not shown) [Example I-73, N-(2-{[3-(1-Benzofuran-2-yl)imidazo[1,2-b]-pyridazin-6-yl]oxy}ethyl)-2-methylbutanamide] | 5.6 | 16.5 |  |  |  | 
8 | COCC(=O)NC[C@H](Oc1ccc2ncc(-c3cc4ccccc4o3)n2n1)c1cccnc1 [Example I-30, N-[(2R)-2-{[3-(1-Benzofuran-2-yl)imidazo[1,2-b]pyridazin-6-yl]oxy}-2-(pyridin-3-yl)ethyl]-2-methoxyacetamide] | 10.3 | 34.8 |  |  |  | 
9 | N[C@H]1C[C@H](Oc2ccc3ncc(-c4cc5c(N6CCNCC6)nccc5o4)n3n2)C1 [III-103, trans-3-({3-[4-(Piperazin-1-yl)furo[3,2-c]pyridin-2-yl]imidazo[1,2-b]pyridazin-6-yl}oxy)cyclobutanamine] |  |  |  |  | 9.1 | 18.6
10 | CC(C)(C)OC(=O)N1CCN(c2nccc3oc(-c4cnc5ccc(OC[C@H]6CCC(=O)N6)nn45)cc23)CC1 [III-70, tert-Butyl 4-[2-(6-{[(2R)-5-oxopyrrolidin-2-yl]methoxy}imidazo[1,2-b]pyridazin-3-yl)furo[3,2-c]pyridin-4-yl]piperazine-1-carboxylate] |  |  |  |  | 4.8 | 13.5
11 | CS(=O)(=O)CCCOc1ccc2ncc(-c3cc4c(N5CCNCC5)cccc4o3)n2n1 [II-20, 6-[3-(Methylsulfonyl)propoxy]-3-[4-(piperazin-1-yl)-1-benzofuran-2-yl]imidazo-[1,2-b]pyridazine] |  |  | 0.5 | 0.8 |  | 
12 | CCN(CCOC)c1nccc2oc(-c3cnc4ccc(OCC5CCCCN5)nn34)cc12 (stereo not shown) [III-41, N-Ethyl-N-(2-methoxyethyl)-2-[6-(piperidin-2-ylmethoxy)imidazo[1,2-b]pyridazin-3-yl]furo[3,2-c]pyridin-4-amine] |  |  |  |  | 12 | 17.6
13 | NC(=O)C(Oc1ccc2ncc(-c3cc4ccccc4o3)n2n1)c1cccnc1 (stereo not shown) [Example I-39, 2-{[3-(1-Benzofuran-2-yl)imidazo[1,2-b]pyridazin-6-yl]oxy}-2-(pyridin-3-yl)acetamide] | 55.2 | 77.7 |  |  |  | 
14 | C[C@H]1CNCCN1c1cccc2oc(-c3cnc4ccc(OC[C@@H]5CCC(=O)N5)nn34)cc12 [II-38, (5S)-5-{[(3-{4-[(2S)-2-methylpiperazin-1-yl]-1-benzofuran-2-yl}imidazo[1,2-b]pyridazin-6-yl)oxy]methyl}pyrrolidin-2-one] |  |  | 4.6 | 1.4 |  | 
15 | C[C@@H]1CNCCN1c1cccc2oc(-c3cnc4ccc(OC[C@H]5CCC(=O)N5)nn34)cc12 [II-65, (5R)-5-{[(3-{4-[(2R)-2-methylpiperazin-1-yl]-1-benzofuran-2-yl}imidazo[1,2-b]pyridazin-6-yl)oxy]methyl}pyrrolidin-2-one] |  |  | 0.9 | 1.3 |  | 
16 | C[C@@H](N)COc1ccc2ncc(-c3cc4c(N5CCC(CO)CC5)nccc4o3)n2n1 [III-2, {1-[2-(6-{[(2R)-2-Aminopropyl]oxy}imidazo[1,2-b]pyridazin-3-yl)furo[3,2-c]pyridin-4-yl]piperidin-4-yl}methanol] |  |  |  |  | 1.8 | 1.8
17 | C[C@H](N)COc1ccc2ncc(-c3cc4c(N5CCN(c6ccccc6)CC5)nccc4o3)n2n1 [III-23, (2S)-1-({3-[4-(4-Phenylpiperazin-1-yl)furo[3,2-c]pyridin-2-yl]imidazo[1,2-b]pyridazin-6-yl}oxy)propan-2-amine] |  |  |  |  | 16.6 | 45
18 | C[C@H]1COCCN1c1cccc2oc(-c3cnc4ccc(OC[C@@H]5CCC(=O)N5)nn34)cc12 [II-33, (5S)-5-{[(3-{4-[(3S)-3-methylmorpholin-4-yl]-1-benzofuran-2-yl}imidazo[1,2-b]pyridazin-6-yl)oxy]methyl}pyrrolidin-2-one] |  |  | 16.3 | 24.4 |  | 
19 | CCN(CCOC)c1cccc2oc(-c3cnc4ccc(OCCCS(C)(=O)=O)nn34)cc12 [II-23, N-Ethyl-N-(2-methoxyethyl)-2-{6-[3-(methylsulfonyl)propoxy]imidazo[1,2-b]-pyridazin-3-yl}-1-benzofuran-4-amine] |  |  | 2 | 1.9 |  | 
20 | C[C@H](N)COc1ccc2ncc(-c3cc4c(N(C)C5CCN(C)CC5)nccc4o3)n2n1 [III-13, 2-(6-{[(2S)-2-Aminopropyl]oxy}imidazo[1,2-b]pyridazin-3-yl)-N-methyl-N-(1-methylpiperidin-4-yl)furo[3,2-c]pyridin-4-amine] |  |  |  |  | 13 | 62
